Test results as given in US20070191311A1, “P2x receptor inhibitor” (priority 2004, published 2007).

Experiments:
rat type P2X2/3 receptor = molecular target: T1, rat type P2X2/3 receptor (Rattus norvegicus, UniProt P49653+P49654); assay: P2X2/3 receptor inhibitory activity ([14C]-guanidine uptake stimulated by αβ-me ATP in CHO cells); format: cell-based; conditions: for IC50: CHO cell expressing rat type P2X2/3 receptor, 4 μM αβ-me ATP, [14C]-guanidine, 15 minutes room temperature, read-out: IC50 (concentration which inhibits 50% of the function of P2X2/3 receptor); for P2X2/3,3 receptor inhibitory activity (in words): Table 1
T1 construct: expressed in transfected cells; host or cells: CHO cells (selected with G-418)
T1 sequence (P49653 1-472): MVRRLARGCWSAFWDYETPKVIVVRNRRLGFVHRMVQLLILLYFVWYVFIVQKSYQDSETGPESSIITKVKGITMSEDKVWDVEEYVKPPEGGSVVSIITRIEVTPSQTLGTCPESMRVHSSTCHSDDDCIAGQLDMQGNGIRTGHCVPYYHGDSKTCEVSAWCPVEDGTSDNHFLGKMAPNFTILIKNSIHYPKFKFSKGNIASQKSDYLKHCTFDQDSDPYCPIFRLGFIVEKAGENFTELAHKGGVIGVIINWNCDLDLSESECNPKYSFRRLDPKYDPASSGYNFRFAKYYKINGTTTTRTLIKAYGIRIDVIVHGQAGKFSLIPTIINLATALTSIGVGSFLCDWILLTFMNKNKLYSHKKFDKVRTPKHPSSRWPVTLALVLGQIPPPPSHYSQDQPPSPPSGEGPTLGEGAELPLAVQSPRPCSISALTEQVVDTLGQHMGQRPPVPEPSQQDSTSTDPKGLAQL
T1 sequence (P49654 1-397): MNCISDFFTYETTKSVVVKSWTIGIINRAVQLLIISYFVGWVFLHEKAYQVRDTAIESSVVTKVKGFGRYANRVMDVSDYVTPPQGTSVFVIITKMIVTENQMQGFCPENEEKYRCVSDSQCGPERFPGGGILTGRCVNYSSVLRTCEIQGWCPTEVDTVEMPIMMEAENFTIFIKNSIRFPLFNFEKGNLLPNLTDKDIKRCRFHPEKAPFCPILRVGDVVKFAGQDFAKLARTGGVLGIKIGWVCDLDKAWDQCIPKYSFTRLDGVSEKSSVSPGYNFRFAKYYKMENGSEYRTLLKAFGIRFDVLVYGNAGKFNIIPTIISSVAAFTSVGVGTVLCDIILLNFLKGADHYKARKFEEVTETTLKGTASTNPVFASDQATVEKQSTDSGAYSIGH
Protocol: On the day before the test, the resulting cells were inoculated onto a 96-well culture plate at a density of about 6×10^4 cells/well and cultured for 24 hours in the medium containing 2 units/ml of apyrase 2.

[1] = in vivo; cited from earlier work
mouse = assay: Formalin induced pain behavior; format: in vivo
Protocol: The test substance or solvent was subcutaneously administered to each mouse at a volume of 10 ml/kg. After 30 minutes thereof, formalin was administered under the skin of one sole (2.0%, 20 μl/body). Total time of lifting (a behavior of lifting the administered side sole from the floor face) and licking (a behavior of licking and biting the administered side sole) occurred during every 5 minutes was measured over 30 minutes starting just after the administration of formalin. By defining the period of from 0 to 5 minutes after the formalin administration as a phase I (Phase I), and that of from 10 to 30 minutes as a phase II (Phase II), the total time of lifting and licking occurred in each phase was calculated.

[2] = tested on: patients of multiple myeloma; conditions: oral 6 mg once a day; 24 weeks; cited from earlier work
mice [3] = assay: αβ-me ATP induced pain behavior; format: in vivo; conditions: for αβ-me ATP induced pain behavior (total time of lifting and licking): 30 minutes before αβ-me ATP, significant difference to control
Protocol: 16 (2000). […] Total time of lifting (a behavior of lifting the administered side sole from the floor face) and licking (a behavior of licking and biting the administered side sole) occurred during 5 minutes just after the administration of αβ-me ATP was measured. […] Test on the statistical significant difference between the solvent administration group used as a control group and the test substance administration group was carried out using the Dunnett method.

mice [4] = assay: Acetic acid induced pain behavior (writhing); format: in vivo
Protocol: This test was carried out with reference to the method described in Pain, 96, p. […] After 30 minutes thereof, 0.6% acetic acid was intraperitoneally administered (10 ml/kg). Frequency of writhing (a body writhing behavior) occurred within a period of 15 minutes, starting from 2 minutes after the acetic acid administration until 17 minutes thereafter, was measured. The test was carried out twice as the test 1 and test 2. Test on the statistical significant difference between the solvent administration group used as a control group and the test substance administration group was carried out using the Dunnett method.

[5] = tested on: patients of bone metastasis of breast cancer and bone metastasis of lung cancer; assay: Clinical test in patients of bone metastasis of breast cancer and lung cancer; format: in vivo, human; conditions: 1 or 2 mg once in 2 weeks for 12 weeks; from the initial evaluation time (1st week)
cancer patients = conditions: clinical test; cited from earlier work
rat cancer pain model = conditions: continuously administered for 19 days; cited from earlier work

## O=P(O)(O)C(Cl)(Cl)P(=O)(O)O [clodronate]
Rat type P2X2/3 receptor
  IC50: > 300 µM
  P2X2/3,3 receptor inhibitory activity (in words): did not show the P2X2/3,3 receptor inhibitory activity
[1]
  analgesic action in the tail-flick test: dose-dependent analgesic action

## O=P(O)(O)C(O)(Cc1cnc2ccccn12)P(=O)(O)O [minodronic acid hydrate]
mouse; 30 mg/kg s.c.
  formalin induced pain behavior, Phase I (0 to 5 minutes): did not exert influence
  formalin induced pain behavior, Phase II (10 to 30 minutes): suppressed
mouse; formalin test
  behavioral side effect at the time of the pain behavior observation: not observed
[2]
  bone pain in multiple myeloma patients: improved
  used amount of an analgesic in multiple myeloma patients: reduced

## O=P(O)(O)C(O)(Cc1cnc2ccccn12)P(=O)(O)O [minodronic acid, 1-hydroxy-2-(imidazo[1,2-a]pyridin-3-yl)ethane-1,1-bisphosphonic acid]
Rat type P2X2/3 receptor
  P2X2/3,3 receptor inhibitory activity (in words): good receptor inhibitory activity
Mice [3]; 30 mg/kg i.p.
  αβ-me ATP induced pain behavior (total time of lifting and licking): suppressed
Mice [3]; 10 to 50 mg/kg s.c.
  αβ-me ATP induced pain behavior (total time of lifting and licking): suppressed
Mice [3]; αβ-me ATP test
  behavioral side effect at the time of the pain behavior observation: not observed
Mice [4]; acetic acid test
  behavioral side effect at the time of the pain behavior observation: not observed
Mice [4]; s.c., 10 and 30 mg/kg, 0.6% acetic acid i.p.
  writhing behavior (acetic acid induced): dose-dependently suppressed
[5]
  pain value (bone pain) in patients: reducing tendency of pain value was observed

## NCCC(O)(P(=O)(O)O)P(=O)(O)O [pamidronate]
Rat type P2X2/3 receptor
  IC50: > 300 µM
  P2X2/3,3 receptor inhibitory activity (in words): did not show the P2X2/3,3 receptor inhibitory activity
[1]
  analgesic action in the tail-flick test: dose-dependent analgesic action

## Cc1ccc(C(=O)Nc2ccc(S(=O)(=O)O)c3cc(S(=O)(=O)O)cc(S(=O)(=O)O)c23)cc1NC(=O)c1cccc(NC(=O)Nc2cccc(C(=O)Nc3cc(C(=O)Nc4ccc(S(=O)(=O)O)c5cc(S(=O)(=O)O)cc(S(=O)(=O)O)c45)ccc3C)c2)c1 [suramin]
Rat type P2X2/3 receptor
  IC50: 194 µM
Cancer patients
  pain score in cancer patients: reduction of pain score was observed

## O=P(O)(O)C(O)(Cn1ccnc1)P(=O)(O)O [zoledronate]
Rat type P2X2/3 receptor
  IC50: > 300 µM
  P2X2/3,3 receptor inhibitory activity (in words): did not show the P2X2/3,3 receptor inhibitory activity
Rat cancer pain model
  mechanical allodynia and mechanical hyperalgesia accompanied by cancer pain: inhibit

## trinitrophenyl (TNP)-ATP [TNP-ATP]
Rat type P2X2/3 receptor
  IC50: 0.18 µM
